Measurements taken from publication doi:10.1101/2025.07.20.665728 (bioRxiv, 2025).

Legend:
C1R.MR1 cells = assay: Intracellular total folded MR1 by flow cytometry (8F2.F9); format: cell-based; conditions: C1R.MR1, 100 μM, 16 h
[1] = molecular target: T1, human MR1-β2-microglobulin (β2m) complex (Homo sapiens, UniProt Q95460); assay: In vitro refolding of MR1-β2m co-complex with ligand; format: binding; conditions: ligand added to refolding buffer
T1 construct: plasmids encoding for the extracellular domains of MR1, β2m, and the AF-7 TCRα and TCRβ chains; made in house
Description: We then assessed the capacity of RF and its catabolites to be loaded within recombinant MR1. The human MR1-β2-microglobulin (β2m) complex can only co-purify when the MR1 Ag-binding pocket is occupied with ligand ([Kjer-Nielsen et al., 2012]). […] Next, we examined how these catabolites could stabilize MR1 using an in vitro MR1-Ag complexes through thermostability assay ([Eckle et al., 2014]) (Fig. 1H). Here, the half-maximum melting temperatures (Tm50) of the stable complexes MR1-5-OP-RU and MR1-Ac-6-FP were 58.65 ± 0.42 and 62.12 ± 0.37 °C; respectively, consistent with previous values ([Eckle et al., 2014]). […] Thus, the binding of these ligands stabilizes the MR1 protein but to a lower extent in comparison to MR1-5-OP-RU and MR1-Ac-6-FP (Fig. 1H).
Escherichia coli BL21(DE3) cells were transformed with plasmids encoding for the extracellular domains of MR1, β2m, and the AF-7 TCRα and TCRβ chains ([Kjer-Nielsen et al., 2012]; [Patel et al., 2013]; [Wang et al., 2022a]). The proteins were then expressed, and the inclusion bodies were purified, cleaned, and used for refolding. For both MR1 and AF-7 TCR, inclusion bodies were refolded through rapid dilution overnight as previously mentioned ([Keller et al., 2017]). To refold MR1 with ligands, 58 mg MR1 inclusion bodies along with 30 mg of β2m inclusion bodies were placed in a 500 ml of refold buffer consisting of 0.1 M Tris pH 8.0, 5 M of urea, 2 mM EDTA, 2.5 mM oxidized glutathione, 20 mM reduced glutathione and 0.4 M of L-arginine for 16 h at 4° C. Ligands were dissolved in dilute NaOH and added directly into the refolding buffer. […] The refolded MR1-ligand complex was dialyzed against 10 mM Tris pH 8.0 overnight and purified using size-exclusion (Superdex 200, GE Healthcare) and anion-exchange (HiTrapQ, GE Healthcare) chromatography techniques ([Awad et al., 2020a]).

hMR1^R9H = molecular target: T2, hMR1^R9H (Homo sapiens, UniProt Q95460, R31H); assay: In vitro refolding of MR1 R9H mutant with ligand; format: binding
T2 construct: plasmids encoding for the extracellular domains of MR1, β2m, and the AF-7 TCRα and TCRβ chains; made in house; host or cells: Escherichia coli BL21(DE3), inclusion bodies
Description: We then tested the effect of the RF catabolites on the expression of two mutant versions of MR1 termed MR1^R9H ([Howson et al., 2020]) and MR1^K43A ([Reantragoon et al., 2013]). First, we tested the MR1^R9H mutant ([Howson et al., 2020]) which represents a rare, natural human polymorph. […] When C1R. […] Next, we tested sought to understand how the previously characterised Lys43A mutation affects ligand binding. […] While this is in line with the ability of these ligands to bind MR1, the reason for MR1^K43A cell surface accumulation is less clear. The most likely explanation is that these ligands bind ER-resident MR1^K43A, in line with our data using wild-type MR1; however, because the K43A mutation results in spontaneous MR1 surface egress, the presence of these stabilising ligands promotes enhanced trafficking and/or retention at the cell surface. We cannot rule out however that the ligands may also bind directly to surface MR1^K43A and slow down the recycling from cell surface.
Escherichia coli BL21(DE3) cells were transformed with plasmids encoding for the extracellular domains of MR1, β2m, and the AF-7 TCRα and TCRβ chains ([Kjer-Nielsen et al., 2012]; [Patel et al., 2013]; [Wang et al., 2022a]). The proteins were then expressed, and the inclusion bodies were purified, cleaned, and used for refolding. […]

[2] = system: SKW-3 cells expressing AF-7 (TRAV1-2/TRBV6-1) TCR; assay: MAIT cell activation assay, SKW-3 AF-7 TCR co-cultured with C1R.MR1; format: cell-based; conditions: for 5-OP-RU-induced activation (CD69): SKW-3 AF-7, in presence of 1 nM 5-OP-RU; for CD69 surface expression (activation): SKW-3 AF-7, ligand alone
Protocol: Next, we explored whether RF catabolites could activate SKW-3 cells expressing two different MAIT TCRs. Distinct responses of T cells expressing TCRs with varying TRBV chain usage reinforces the role of Vβ in modulating MAIT responses to various ligands ([Chancellor et al., 2023]; [Gherardin et al., 2016]; [Seneviratna et al., 2022]).The surface expression of CD69 was measured as a marker for activation of cells expressing the AF-7 (TRAV1-2/TRBV6-1) or MBV28 (TRAV1-2/TRBV28) TCRs after co-culture with C1R.MR1 cells and the ligands.
C1R.MR1 cells (1 x 10^5) were initially stained with CTV for 15 minutes and then incubated with RF catabolites for 20 h. […] Cells were subsequently stained with PE-Cy7-conjugated anti-CD69 (BD; 1:100) and PE-labelled anti-MR1 (26.5 clone; BD; 1:100), before analysis on LSRFortessa (BD Biosciences) flow cytometer. Activation of SKW-3-MAIT cells was reflected by the cell-surface CD69 expression.

MAIT cells in human PBMC = assay: Primary MAIT activation (CD69) in PBMCs; format: cell-based; conditions: 16 h, co-incubation with 5-OP-RU

T1 sequence (Q95460 23-302 limits assumed): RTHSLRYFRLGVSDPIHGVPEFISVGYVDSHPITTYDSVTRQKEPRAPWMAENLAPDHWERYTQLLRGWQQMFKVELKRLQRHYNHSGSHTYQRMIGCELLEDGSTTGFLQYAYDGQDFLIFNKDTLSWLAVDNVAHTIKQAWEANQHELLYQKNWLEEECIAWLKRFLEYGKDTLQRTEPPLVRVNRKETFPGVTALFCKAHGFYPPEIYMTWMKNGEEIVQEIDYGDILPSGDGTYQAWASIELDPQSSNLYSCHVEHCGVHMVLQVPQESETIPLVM
T1 sequence (P61769 21-119 partner): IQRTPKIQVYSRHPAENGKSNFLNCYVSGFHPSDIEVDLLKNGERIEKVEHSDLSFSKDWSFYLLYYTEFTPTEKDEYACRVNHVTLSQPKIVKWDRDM
T2 sequence (Q95460 23-302 R31H): as the sequence (Q95460 23-302 limits assumed) above, with R9H counted along it
T2 sequence (P61769 21-119 partner): as the sequence (P61769 21-119 partner) above

Structure (SMILES)	total level of folded MR1 (intracellular staining with 8F2.F9) (C1R.MR1 cells)	folding of the MR1-β2m co-complex in solution [1]	refolding with hMR1^R9H in solution (hMR1^R9H)	5-OP-RU-induced activation (CD69) [2]	CD69 surface expression (activation) [2]	MR1 expression on C1R.MR1 in co-culture ([2]; SKW-3 AF-7 co-culture with 5-OP-RU)	competition with 5-OP-RU for MAIT activation (CD69) (MAIT cells in human PBMC)
O=c1nc2[nH]c3ccccc3nc-2c(=O)[nH]1 [Alloxazine, alloxazine]	also increased the total level of folded MR1	facilitated the correct folding					
Cc1cc2nc3[nH]c(=O)[nH]c(=O)c3nc2cc1C [Lumichrome, 7,8-dimethylalloxazine]	also increased the total level of folded MR1	facilitated the correct folding	did not refold	enhanced the 5-OP-RU-induced CD69 expression	minor reductions in CD69	dose-dependent reduction in MR1 expression	most potent competitor
Cc1cc2nc3c(=O)[nH]c(=O)nc-3n(C)c2cc1C [Lumiflavin]		facilitated the correct folding		slightly exaggerated	minor increase in CD69		
Cc1cc2nc3c(=O)[nH]c(=O)nc-3n(C[C@H](O)[C@H](O)[C@H](O)CO)c2cc1C [RF, Riboflavin]		did not sponsor refolding		could not compete with 5-OP-RU	minor increase in CD69		potent concentration-dependent competition
